The text below walks through data of patent US10619182B2, “Method, device and system for testing drug sensitivity” (HITACHI, LTD., priority 2014, dated 2020).

Common to all, as to type: cell-based
In experiment [1] the test system is E. coli. Briefly: Time-dependent change in live and dead bacteria ATP luminescence amount (Methods (1) to (4)). An excerpt:
Next, a method for measuring ATP derived from the live bacteria and the dead bacteria will be described with reference to FIG. 2. A live bacteria ATP method in Method (1) is used in eliminating ATP5 outside a bacterial cell so as to measure ATP2000 included in the cell membrane of the live bacterium 2 and ATP3000 included in the cell membrane of the dead bacterium 3 having no damage to the cell membrane. A submerged ATP method in Method (2) is used in measuring the dead bacteria 4 having the damaged cell membrane and the free ATP5 in the culture liquid 1 while the bacterial cells of the live bacterium 2 and the dead bacteria 3 and 4 are included. The dead bacterium 4 serves as a measurement target, since a substrate and enzyme of enzyme luciferase reaction which are bioluminescent molecules (to be described later) enter the dead bacterium 4 from a damaged site. […]
Next, a result example obtained in such a way that E. coli as an example is processed according to Methods (1) to (4) so as to measure an ATP amount will be described with reference to FIGS. 4a and 4b. […] The luciferase oxidizes luciferin which serves as a substrate in the presence of ATP and Mg^2+ inside the bacteria, and a luminescence amount generated at that time is proportional to the ATP amount. Accordingly, bacteria growth is evaluated, based on a change in the luminescence amount.
In the present embodiment, the luminescence amount is represented by integration of a photon count value of 60 sec, and the unit is defined as the luminescence amount (amount of luminescence (a.u.)). As described above, the luminescence amount and the ATP amount are in a proportional relationship. In a case where the luminescence amount increases, it is determined that the ATP amount increases.
FIG. 4a illustrates a result obtained by culturing E. coli on the absence of antibiotics. […] If the results in FIGS. 4a and 4b are compared with each other, in FIG. 4a, according to the live bacteria ATP method in Method (1), the luminescence amount increases with the lapse of the culture time until four hours of the culture time. […]

The subject of experiment [2] is Escherichia coli (ATCC25922 strain). Put plainly: Antimicrobial susceptibility test using the ATP method (dead bacteria ATP / live bacteria ATP ratio). The conditions noted are these: E. coli, ABPC 4 μg/mL, LVFX 0.125 μg/mL, FIG. 11. The procedure: (§1) In this experiment, Escherichia coli (ATCC25922 strain; hereinafter, referred to as E. coli) and Staphylococcus aureus (ATCC25923; hereinafter, referred to as S. aureus) are used as the bacterial cell. An antimicrobial susceptibility test using the ATP method is carried out for both of these. As antibiotics, ampicillin and levofloxacin (hereinafter, referred to as LVFX) are used. First, the bacterial cells are cultured overnight on an LB agar medium, and the next day, a colony is suspended in a Mueller-Hinton (hereinafter, referred to as MH) medium, thereby preparing a bacterial suspension prepared in 0.5 McFarland. Next, the bacterial suspension diluted 500 times in the MH medium is distributed as much as each 50 μL to the plate to which the MH medium containing the antibiotic whose concentration is twice the final concentration is distributed in advance as much as each 50 μL. The static culture is carried out at 37° C. for a certain period of time, and the bacterial suspension is prepared. For the final concentration of the antibiotic, ABPC is set to 4 μg/mL and LVFX is set to 0.125 μg/mL in a case where E. coli is a measurement target. In a case where S. aureus is a measurement target, ABPC is set to 0.25 μg/mL and LVFX is set to 0.125 μg/mL. The bacterial cells are compared with the bacterial cells cultured in the MH medium having no antibiotic contained therein. The live bacteria ATP is prepared by mixing 2 μL of the ATP eliminating solution with 18 μL of the above-described bacteria culture liquid, and the mixture is left static at room temperature for 30 minutes. Thereafter, 20 μL of the ATP extracting reagent is mixed therewith, and the mixture is left static at room temperature for one minute so as to prepare the live bacteria ATP. The dead bacteria ATP is prepared by adding the bacteria culture liquid onto a filter (membrane pore size 0.22 μm). The filtrate obtained through filtering using centrifugation is used as the dead bacteria ATP. The luminescence reagent is added to the prepared live bacteria ATP or dead bacteria ATP, and is subjected to photon counting for one minute. The obtained luminescence amount (amount of luminescence (a.u.)) is used as an index of the ATP amount. According to the above-described experiment, a luminescence amount ratio between the dead ATP luminescence amount and the live ATP luminescence amount is obtained. FIGS. 11 and 12 illustrate a result obtained by calculating the luminescence amount ratio as an amount ratio between the live bacteria ATP and the dead bacteria ATP.

The subject of experiment [3] is Staphylococcus aureus (ATCC25923). The description is as above. The conditions noted are these: S. aureus, ABPC 0.25 μg/mL, LVFX 0.125 μg/mL, FIG. 12. The procedure:
as §1

Turning to `CC1(C)S[C@@H]2[C@H](NC(=O)[C@H](N)c3ccccc3)C(=O)N2[C@H]1C(=O)O` [ABPC, ampicillin], the “luminescence amount according to submerged ATP method (2) to total ATP method (4)” value in experiment [1] (E. coli cultured in the presence of 8 μg/mL ampicillin, FIG. 4b) is “increases or does not vary greatly”. In addition, the “luminescence amount of the live bacteria ATP according to Method (1)” value in experiment [1] (E. coli cultured in the presence of 8 μg/mL ampicillin, after three hours of culture, FIG. 4b) is on record as “decreases with the lapse of the culture time”. The “action of the antibiotic on growth of live bacteria” value in experiment [1] (E. coli, 8 μg/mL ampicillin, during four hours of the culture time) was “stops the growth of the live bacteria so as to kill the bacteria with the lapse of time”. Besides, the “time after start of antimicrobial susceptibility culture at which the effect can be determined (ratio dead bacteria ATP/live bacteria ATP = 1)” value in experiment [2] was “approximately three”; in experiment [3], “approximately two and a half”. Moreover, the “ratio of the dead bacteria ATP amount/the live bacteria ATP amount as the culture time elapses” value is “increases” in experiment [2] (MH medium, 37° C.) and “increases” in experiment [3] (MH medium, 37° C.).
